Data reported in patent US9718780B2, “Substituted pyridines as sodium channel blockers” (priority 2012, dated 2017).

Biological target: human Nav1.7 (Homo sapiens (Human), UniProt Q15858)
Assay: FLIPR or FLIPR TETRA sodium dye assay with KCl and test article pre-incubation
Assay type: cell-based
Details: read-out: Nav1.7 Activity (μM) FLIPR assay IC50 (μM) ± SEM

Chain of human Nav1.7 (Q15858 with tags, fused parts or gaps limits assumed): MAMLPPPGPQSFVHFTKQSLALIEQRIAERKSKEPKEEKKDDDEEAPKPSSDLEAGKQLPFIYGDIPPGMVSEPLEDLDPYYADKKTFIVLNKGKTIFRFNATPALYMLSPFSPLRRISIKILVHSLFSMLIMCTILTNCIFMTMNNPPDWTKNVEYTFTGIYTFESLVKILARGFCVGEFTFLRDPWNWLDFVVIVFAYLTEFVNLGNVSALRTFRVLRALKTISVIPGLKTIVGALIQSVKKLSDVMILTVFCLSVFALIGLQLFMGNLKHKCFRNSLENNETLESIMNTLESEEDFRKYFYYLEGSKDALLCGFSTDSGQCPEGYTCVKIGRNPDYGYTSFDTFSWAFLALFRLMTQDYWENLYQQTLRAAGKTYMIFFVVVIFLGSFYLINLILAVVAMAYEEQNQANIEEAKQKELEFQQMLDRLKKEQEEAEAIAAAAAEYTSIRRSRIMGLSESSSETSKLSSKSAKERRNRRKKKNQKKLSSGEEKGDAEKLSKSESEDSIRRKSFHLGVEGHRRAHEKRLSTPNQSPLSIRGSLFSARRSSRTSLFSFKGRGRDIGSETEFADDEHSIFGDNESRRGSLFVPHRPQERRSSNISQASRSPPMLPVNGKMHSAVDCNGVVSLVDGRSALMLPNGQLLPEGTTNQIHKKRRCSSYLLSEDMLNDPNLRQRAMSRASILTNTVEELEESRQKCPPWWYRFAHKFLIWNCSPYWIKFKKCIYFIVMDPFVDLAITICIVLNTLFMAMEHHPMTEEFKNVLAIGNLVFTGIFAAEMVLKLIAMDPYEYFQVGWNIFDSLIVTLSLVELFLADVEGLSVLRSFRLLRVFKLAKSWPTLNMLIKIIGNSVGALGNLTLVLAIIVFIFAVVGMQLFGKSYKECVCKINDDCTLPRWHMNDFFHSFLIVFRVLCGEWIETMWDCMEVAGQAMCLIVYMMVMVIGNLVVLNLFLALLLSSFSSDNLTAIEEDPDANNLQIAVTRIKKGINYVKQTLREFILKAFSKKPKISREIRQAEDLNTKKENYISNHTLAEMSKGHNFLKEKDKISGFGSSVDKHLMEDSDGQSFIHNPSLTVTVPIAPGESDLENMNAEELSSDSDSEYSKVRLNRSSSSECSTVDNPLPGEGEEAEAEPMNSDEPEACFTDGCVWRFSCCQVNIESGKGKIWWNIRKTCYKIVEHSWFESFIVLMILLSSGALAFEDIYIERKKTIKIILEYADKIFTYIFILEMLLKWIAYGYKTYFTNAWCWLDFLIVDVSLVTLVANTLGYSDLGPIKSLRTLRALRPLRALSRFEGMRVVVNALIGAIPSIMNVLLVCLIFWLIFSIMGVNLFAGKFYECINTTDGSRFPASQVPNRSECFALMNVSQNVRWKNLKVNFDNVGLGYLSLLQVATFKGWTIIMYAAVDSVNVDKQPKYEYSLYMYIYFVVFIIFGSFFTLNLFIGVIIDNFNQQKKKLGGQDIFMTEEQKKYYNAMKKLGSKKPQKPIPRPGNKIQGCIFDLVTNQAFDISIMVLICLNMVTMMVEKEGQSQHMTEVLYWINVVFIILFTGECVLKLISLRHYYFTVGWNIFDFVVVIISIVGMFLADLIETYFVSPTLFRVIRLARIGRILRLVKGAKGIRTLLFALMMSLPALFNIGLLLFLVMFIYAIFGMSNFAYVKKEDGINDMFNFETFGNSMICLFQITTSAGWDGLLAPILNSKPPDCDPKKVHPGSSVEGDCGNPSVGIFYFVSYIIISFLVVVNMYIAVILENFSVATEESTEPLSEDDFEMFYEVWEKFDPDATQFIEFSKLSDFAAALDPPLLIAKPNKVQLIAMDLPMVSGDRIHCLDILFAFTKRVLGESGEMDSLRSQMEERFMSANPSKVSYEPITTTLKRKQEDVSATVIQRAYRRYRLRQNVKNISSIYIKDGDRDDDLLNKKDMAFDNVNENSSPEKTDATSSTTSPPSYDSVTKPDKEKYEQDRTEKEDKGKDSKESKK

**Q.** `N#Cc1ccc(Oc2ccc(-c3cccc(C(=O)[C@H](O)CO)n3)cc2)cc1` [Compound 5, (R)-4-(4-(6-(2,3-dihydroxypropanoyl)pyridin-2-yl)phenoxy)benzonitrile] was tested. Which IC50 did it give?
**A.** Its IC50 is 0.149 ± 0.023 µM.

**Q.** With `N#Cc1cc(Oc2ccc(-c3cccc(C(O)C(N)=O)n3)cc2)ccc1C(F)(F)F` (stereo not drawn) [Compound 6, 2-(6-(4-(3-cyano-4-(trifluoromethyl)phenoxy)phenyl)pyridin-2-yl)-2-hydroxyacetamide] as the compound, how does the IC50 read?
**A.** The IC50 was 0.722 ± 0.053 µM.

**Q.** With `N#Cc1ccc(Oc2ccc(-c3cccc(C(=O)[C@H](O)CO)n3)cc2)cc1C(F)(F)F` [Compound 2, (R)-4-(4-(6-(2,3-dihydroxypropanoyl)pyridin-2-yl)phenoxy)-2-(trifluoromethyl)benzonitrile] as the compound, how does the IC50 read?
**A.** Its IC50 is 0.365 ± 0.065 µM.

**Q.** Which IC50 does the source give for `N#Cc1cc(Oc2ccc(-c3cccc(C(=O)[C@H](O)CO)n3)cc2)ccc1C(F)(F)F` [Compound 3, (R)-5-(4-(6-(2,3-dihydroxypropanoyl)pyridin-2-yl)phenoxy)-2-(trifluoromethyl)benzonitrile] here?
**A.** The IC50 was 0.402 ± 0.096 µM.

**Q.** With `O=C(c1cccc(-c2ccc(Oc3ccc(C(F)(F)F)cc3)cc2)n1)[C@H](O)CO` [Compound 4, (R)-2,3-dihydroxy-1-(6-(4-(4-(trifluoromethyl)phenoxy)phenyl)pyridin-2-yl)propan-1-one] as the compound, how does the IC50 read?
**A.** Its IC50 is 0.136 ± 0.016 µM.

**Q.** `O=C(c1cccc(-c2ccc(Oc3ccc(F)cc3)cc2)n1)[C@H](O)CO` [Compound 1, (R)-1-(6-(4-(4-fluorophenoxy)phenyl)pyridin-2-yl)-2,3-dihydroxypropan-1-one] was tested. Which IC50 did it give?
**A.** The IC50 was 0.133 ± 0.005 µM.
